target: Protein cereblon/Bromodomain-containing protein 9 (Homo sapiens, UniProt Q9H8M2+Q96SW2); test: Induction of CRBN-mediated GFP-fused BRD9 (unknown origin) degradation expressed in HEK293-A cells incubated for 24 hrs by flow cytometric analysis; format: cell-based
Sequence (Q9H8M2 whole entry, the tested form may be a part): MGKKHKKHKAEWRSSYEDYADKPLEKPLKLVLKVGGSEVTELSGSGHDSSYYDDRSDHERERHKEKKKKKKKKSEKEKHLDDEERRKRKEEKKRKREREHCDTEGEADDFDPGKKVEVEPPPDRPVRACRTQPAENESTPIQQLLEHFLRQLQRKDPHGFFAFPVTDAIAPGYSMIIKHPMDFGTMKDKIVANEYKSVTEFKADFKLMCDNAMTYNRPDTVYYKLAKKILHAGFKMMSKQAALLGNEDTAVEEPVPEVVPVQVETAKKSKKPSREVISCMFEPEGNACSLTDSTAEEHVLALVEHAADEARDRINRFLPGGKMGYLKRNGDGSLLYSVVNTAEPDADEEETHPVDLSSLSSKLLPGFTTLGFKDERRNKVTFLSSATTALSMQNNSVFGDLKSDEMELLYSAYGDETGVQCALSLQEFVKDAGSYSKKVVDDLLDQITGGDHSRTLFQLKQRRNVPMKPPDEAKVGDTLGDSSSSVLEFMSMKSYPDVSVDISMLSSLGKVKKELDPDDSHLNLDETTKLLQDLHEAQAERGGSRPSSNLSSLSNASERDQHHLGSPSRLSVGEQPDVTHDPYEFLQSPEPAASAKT
Sequence (Q96SW2 whole entry, the tested form may be a part): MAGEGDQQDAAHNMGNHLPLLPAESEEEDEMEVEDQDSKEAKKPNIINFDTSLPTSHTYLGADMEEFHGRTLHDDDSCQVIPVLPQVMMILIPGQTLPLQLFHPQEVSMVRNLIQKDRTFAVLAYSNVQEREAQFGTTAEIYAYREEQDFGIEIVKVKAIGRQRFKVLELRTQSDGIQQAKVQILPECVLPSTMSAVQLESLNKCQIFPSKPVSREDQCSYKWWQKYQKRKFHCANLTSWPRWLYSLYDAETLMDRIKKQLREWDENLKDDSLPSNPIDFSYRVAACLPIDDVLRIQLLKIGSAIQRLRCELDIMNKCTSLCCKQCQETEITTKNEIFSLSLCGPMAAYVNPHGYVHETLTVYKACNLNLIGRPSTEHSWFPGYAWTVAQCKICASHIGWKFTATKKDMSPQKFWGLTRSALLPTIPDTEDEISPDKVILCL

Row | Structure (SMILES) | DC50 [nM]
1 | CCCCn1cc(-c2ccc(O[C@H]3CCN(CC4CCN(C(=O)c5ccc(OC)c(N6CCC(=O)NC6=O)c5)CC4)C[C@@H]3F)c(OC)c2)c2ccncc2c1=O | 1
2 | CCCCn1cc(-c2cc(F)c(O[C@H]3CCN(CC4CCN(C(=O)c5ccc(OC)c(N6CCC(=O)NC6=O)c5)CC4)C[C@@H]3F)c(F)c2)c2ccncc2c1=O | 1
3 | CCCCn1cc(-c2ccc(OC3CCN(CC4CCN(C(=O)c5ccc(Cl)c(N6CCC(=O)NC6=O)c5)CC4)CC3)c(OC)c2)c2ccncc2c1=O | 1

The next lines start with the values.

Row | DC50 [nM] | Structure (SMILES)
4 | 1 | COc1cc(-c2cn(C)c(=O)c3cnccc23)cc(OC)c1CCN1CCC(OC2CCN(C(=O)c3ccc(Cl)c(N4CCC(=O)NC4=O)c3)CC2)CC1
5 | 1 | CCCCn1cc(-c2cc(OC)c(OC3CCN(CC4CCN(C(=O)c5ccc(Cl)c(N6CCC(=O)NC6=O)c5)CC4)CC3)c(OC)c2)c2ccncc2c1=O
6 | 1 | COc1cc(-c2cn(C)c(=O)c(C)c2C)cc(OC)c1CCN1CCC(OC2CCN(C(=O)c3ccc(Cl)c(N4CCC(=O)NC4=O)c3)CC2)CC1
